# Laboratory results as given in article PMC5394417, “Investigating the molecular mechanism of positive and negative allosteric modulators in the calcium-sensing receptor dimer” (Scientific Reports, 2017).
# Target: T1, HA-I841A CaSR mutant (Rattus norvegicus, UniProt P48442, I841A)
# T1 construct: mGluR5 signal peptide (N); expressed in transfected cells; host or cells: HEK293T
# T1 sequence (P48442 20-1079 I841A): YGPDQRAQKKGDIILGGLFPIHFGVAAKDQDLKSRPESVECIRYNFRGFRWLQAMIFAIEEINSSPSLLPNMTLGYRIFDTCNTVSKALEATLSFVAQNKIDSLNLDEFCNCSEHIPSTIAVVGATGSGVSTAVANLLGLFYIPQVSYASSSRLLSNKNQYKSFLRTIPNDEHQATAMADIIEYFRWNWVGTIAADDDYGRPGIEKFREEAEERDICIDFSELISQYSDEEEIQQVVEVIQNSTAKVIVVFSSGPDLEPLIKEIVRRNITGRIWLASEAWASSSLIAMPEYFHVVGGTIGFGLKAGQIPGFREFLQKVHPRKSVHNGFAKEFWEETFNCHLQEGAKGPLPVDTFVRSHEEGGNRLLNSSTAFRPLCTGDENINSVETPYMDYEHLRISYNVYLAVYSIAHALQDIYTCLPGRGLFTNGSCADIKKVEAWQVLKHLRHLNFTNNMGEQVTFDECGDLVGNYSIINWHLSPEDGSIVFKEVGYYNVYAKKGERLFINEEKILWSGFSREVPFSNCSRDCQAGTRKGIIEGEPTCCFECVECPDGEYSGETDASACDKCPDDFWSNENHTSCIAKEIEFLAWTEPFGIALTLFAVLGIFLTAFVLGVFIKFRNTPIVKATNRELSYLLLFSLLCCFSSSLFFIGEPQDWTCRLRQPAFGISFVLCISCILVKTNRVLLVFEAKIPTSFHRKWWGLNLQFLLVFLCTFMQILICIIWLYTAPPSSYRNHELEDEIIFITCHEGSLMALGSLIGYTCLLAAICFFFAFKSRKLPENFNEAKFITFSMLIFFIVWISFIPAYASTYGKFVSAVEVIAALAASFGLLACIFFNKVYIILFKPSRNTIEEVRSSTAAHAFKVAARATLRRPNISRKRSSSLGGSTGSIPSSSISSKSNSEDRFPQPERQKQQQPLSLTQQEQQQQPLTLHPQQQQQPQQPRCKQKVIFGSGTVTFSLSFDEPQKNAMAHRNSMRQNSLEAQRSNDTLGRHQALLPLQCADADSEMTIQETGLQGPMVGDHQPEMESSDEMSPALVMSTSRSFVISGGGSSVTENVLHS
# Assay: IP-One assay, HEK293T transiently transfected
# Format: cell-based
smiles,measurement,setting,value
[Ca+2] [Ca^2+],EC50,Ca^2+ alone,2.59 mM
same,pEC50 ± S.E.M.,Ca^2+ alone,2.59 ± 0.01
same,Max ± S.E.M.,"Ca^2+ alone, normalized to maximum response of WT CaSR",81 ± 14%
same,EC50,Ca^2+ with 1 μM NPS R-568,3.68 mM
same,Max ± S.E.M.,"Ca^2+ with 1 μM NPS R-568, normalized to maximum response with Ca^2+ alone for the construct",99 ± 18%
same,EC50,Ca^2+ with 5 μM NPS 2143,5.29 mM
same,pEC50 ± S.E.M.,Ca^2+ with 5 μM NPS 2143,2.28 ± 0.03
same,Max ± S.E.M.,"Ca^2+ with 5 μM NPS 2143, normalized to maximum response with Ca^2+ alone for the construct",97 ± 7.6%
